Results: patent US20260286322A1, “PROTEIN TYROSINE P[…] DOMAIN PEPTIDE DIMER FOR NERVOUS SYSTEM REPAIR” (NervGen Pharma Corp., priority 2023, published 2026)

What was measured:
Format in all cases: in vivo, rat
SCI rats = assay: Percentage of SCI rats reaching predefined BBB and/or bladder score thresholds at end of study
Text: In this study, the effects of Compound 8 in improving the recovery of open field locomotor performance and bladder function in the SCI rats were further evaluated in comparison with Compound 4 by assessing the BBB scores and bladder scores according to the methods described in Example 3.
In this assessment, 12-13 rats were included in each of the following groups (1) Control group 1: SCI+saline alone; (2) Control group 2: SCI+Compound 4 in saline; (3) Testing group: SCI+Compound 8. The treatment was started on day 1 post-injury and continued through (last dose administered on) day 49 post-injury. The post-treatment observation period commenced on day 50 post-injury and continued until the end of study on day 84 post-injury.
At the end of the study, the performance of Compound 8 was evaluated in comparison with Compound 4 and saline alone by calculating the percentages of animals achieving predefined thresholds of functional improvement in the following categories: (i) Simultaneous improvement in BBB and bladder scores, (ii) Improvement in the locomotor function (BBB score) alone but not the in the bladder score, (iii) Improvement in the bladder score alone but not in the BBB score. FIG. 16 depicts the percentage of rats in each of these three categories, as annotated on the X-axis. An additional group (annotated as “Combined”) represents the combined percentage of rats achieving improvement in any of the first three categories for each treatment cohort (saline alone, Compound 4, and Compound 8). […]

[1] = Body weights of SCI rats during treatment; conditions: SCI rats vs saline control, measured until the 13th week
Description: (§1) Adult, female Lewis rats (~160 g on arrival) from Envigo were used as the subjects receiving the treatment in the study. The rats were assigned unique identification numbers (PGI ID and tail marks) and housed in ventilated cages. All rats were examined, handled, and weighed prior to initiation of the study to assure adequate health and suitability. During the course of the study, 12/12 light/dark cycles were maintained. The room temperature was maintained between […] and 23° C. with a relative humidity maintained around 50%. Chow and water were provided adlibitum for the duration of the study. The rats were randomly assigned across treatment groups. Body weights were taken twice a week during the study.
(§2) Lyophilized Compound 8 was dissolved in saline and injected s.c. at a volume of 500 μl to animal once daily from day 1-day 49 post spinal cord injury.
The dose concentration was 0.8 mg/ml, corresponding to 400 μg/rat. After reconstitutions, the solution was aliquoted and kept at −20° C. until dosing.
Body weights were taken twice a week for the first 7 weeks after injury and then weekly until endpoint. Health and survival of the animals was evaluated during bladder expressions, body weight and behavioral test, any health concerns were reported and discussed with a veterinarian if needed.

[2] = tested on: animal model of spinal cord injury (SCI rats); assay: Recovery of occasional and frequent walking, inverse Kaplan-Meier on BBB thresholds
Description: as §1
Spinal cord injury (SCI) was introduced to the animals and post-operative care was followed after the injury according to the methods described in Example 3.
as §2
The target dose concentration was 0.8 mg/ml. After reconstitutions, the solution was aliquoted and kept at −20° C. until dosing.
12-13 rats were used in each of the following two groups: • 1) Control group: SCI+Saline • 2) Testing group: SCI+Compound 8 in Saline.
Inverse Kaplan-Meier graphs were generated based on the Basso, Beattie & Bresnaham (BBB) open field locomotor assessment described above in Example 3. […]
Recover occasional walking: Occasional walking is defined as less than or equal to half of the attempted steps are successful, corresponding to a BBB score of 10. The week post-SCI in which an animal achieved a 10 or above was recorded and plotted on the Kaplan Meier graph, as defined above.
Recover frequent walking: Frequent walking is defined as greater than half of the attempted steps are successful and corresponds to a BBB score of 11. The week post-SCI in which an animal achieved an 11 or above was recorded and plotted on the Kaplan Meier graph, as defined above.
Statistical methods: Kaplan Meier curves were analyzed using the log-rank test. Effects of Compound 4 and Compound 8 on the locomotor function and bladder function were assessed for statistical significance by repeated measures ANOVA (RM-ANOVA) with Geisser-Greenhouse correction for non-sphericity of data and Tukey correction for multiple comparisons or by nonparametric Friedman's test with Dunn's multiple comparison correction. The choice of RM ANOVA or Friedman's test for the analysis of each type of data (BBB scores, BBB subscores, and bladder scores) was determined by the normality of data distribution tests performed for each of the functional scores across all treatment cohorts. […]

TAT-Cys-rodent PTPRS wedge domain homodimer [Compound 8]
percentage of rats reaching BBB score of 11 alone (SCI rats; end of study): about 8%
percentage of rats with BBB score of 11 and bladder score of 2 or less simultaneously (SCI rats; end of study): about 40%
percentage of rats with BBB score of at least 10 and bladder score of 2 or less simultaneously (SCI rats; end of study (day 84)): ~50%
percentage of rats with improvement in the BBB score only (at least 10, no bladder score improvement) (SCI rats; end of study (day 84)): about 15%
percentage of rats with improvement in bladder-only scores (2 or less, no BBB improvement) (SCI rats; end of study (day 84), BBB threshold 10): about 8%
combined rate of functional improvement (simultaneous, BBB only and bladder only combined) (SCI rats; end of study (day 84), thresholds BBB at least 10, bladder 2 or less): about 70%
combined rate of functional improvement (BBB 11 only, bladder 2 or lower only, and both) (SCI rats; end of study, thresholds BBB 11, bladder 2 or lower): about 60%
effect on body weights [1]: no adverse effects on body weights
time at which recovery of frequent walking was first detected ([2]; post injury): after three weeks post injury
time at which recovery of occasional walking reached 50% ([2]; post-SCI): less than 6 week
recovery of frequent walking (BBB score of 11 or above), accumulated percent of group ([2]; week 12 post-SCI): ~50%
recovery of occasional walking (BBB score of 10 or above), accumulated percent of group ([2]; week 12 post-SCI, 0.8 mg/ml, 500 μl s.c. once daily day 1-49): ~80%
